Experimental data as given in article PMC5218480 (PLoS ONE, 2017).

Tested on: MV-4-11 cells
Assay: Gene expression microarray analysis (Affymetrix PrimeView) and GSEA
Assay type: cell-based, human
Details: gene VPS36; ACY-1035 1 mM; LIST F

## Nc1ccc(-c2cccs2)cc1NC(=O)c1ccc2c(c1)cc(C1CC1)n2CCN1CCOCC1 [ACY-1035]
  RFU, VPS36 (ProbeSet 11739960_a_at): 54.57 RFU
